pIC50: −log10 of the molar value.
Tested on: 926638-142-R-J1-PDC complex spheroid viability
Assay: Anticancer human tumor 926638-142-R-J1-PDC patient-derived endometrial carcinoma cell line growth inhibition [POLQ]
Settings: for pIC50: curve of first compound; for viability, T/C: stronger effect = lower value
Outline: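 PDC + HUVEC + MSC complex spheroids; POLQ inhibitors ± partner drugs; top conc. at/near clinical Cmax, else 10 microM (SN-38 1 microM), half-log dilutions; 37 degrees C, 5% CO2.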

[1] = second compound 0.0316 µM, first compound 0.00316 µM
[2] = second compound 0.0316 µM, first compound 0.01 µM
[3] = second compound 0.0316 µM, first compound 0.0316 µM
[4] = second compound 0.0316 µM, first compound 0.1 µM
[5] = second compound 0.1 µM, first compound 0.00316 µM
[6] = second compound 0.1 µM, first compound 0.01 µM
[7] = second compound 0.1 µM, first compound 0.0316 µM
[8] = second compound 0.1 µM, first compound 0.1 µM
[9] = second compound 0.316 µM, first compound 0.00316 µM
[10] = second compound 0.316 µM, first compound 0.01 µM
[11] = second compound 0.316 µM, first compound 0.0316 µM
[12] = second compound 0.316 µM, first compound 0.1 µM
[13] = second compound 1 µM, first compound 0.00316 µM
[14] = second compound 1 µM, first compound 0.01 µM
[15] = second compound 1 µM, first compound 0.0316 µM
[16] = second compound 1 µM, first compound 0.1 µM
[17] = second compound 3.16 µM, first compound 0.00316 µM
[18] = second compound 3.16 µM, first compound 0.01 µM
[19] = second compound 3.16 µM, first compound 0.0316 µM
[20] = second compound 3.16 µM, first compound 0.1 µM
[21] = second compound 10 µM, first compound 0.00316 µM
[22] = second compound 10 µM, first compound 0.01 µM
[23] = second compound 10 µM, first compound 0.0316 µM
[24] = second compound 10 µM, first compound 0.1 µM
[25] = second compound 0.0316 µM, first compound 0.316 µM
[26] = second compound 0.0316 µM, first compound 1 µM
[27] = second compound 0.1 µM, first compound 0.316 µM
[28] = second compound 0.1 µM, first compound 1 µM
[29] = second compound 0.316 µM, first compound 0.316 µM
[30] = second compound 0.316 µM, first compound 1 µM
[31] = second compound 1 µM, first compound 0.316 µM
[32] = second compound 1 µM, first compound 1 µM
[33] = second compound 3.16 µM, first compound 0.316 µM
[34] = second compound 3.16 µM, first compound 1 µM
[35] = second compound 10 µM, first compound 0.316 µM
[36] = second compound 10 µM, first compound 1 µM
[37] = second compound 0.0316 µM, first compound 3.16 µM
[38] = second compound 0.0316 µM, first compound 10 µM
[39] = second compound 0.1 µM, first compound 3.16 µM
[40] = second compound 0.1 µM, first compound 10 µM
[41] = second compound 0.316 µM, first compound 3.16 µM
[42] = second compound 0.316 µM, first compound 10 µM
[43] = second compound 1 µM, first compound 3.16 µM
[44] = second compound 1 µM, first compound 10 µM
[45] = second compound 3.16 µM, first compound 3.16 µM
[46] = second compound 3.16 µM, first compound 10 µM
[47] = second compound 10 µM, first compound 3.16 µM
[48] = second compound 10 µM, first compound 10 µM
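Also: spheroids exposed to drugs for one week before readout.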
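For viability, T/C in this document: percent viability relative to DMSO vehicle control wells set as 100%.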

`CC[C@@]1(O)C(=O)OCc2c1cc1n(c2=O)Cc2cc3c(CN(C)C)c(O)ccc3nc2-1` + Cc1cccc(N(C)C(=O)C2C(O)CCN2c2nc(C)cc(C(F)(F)F)c2C#N)c1 showed a pIC50 (second compound 0.0316 µM) of 7.16, a pIC50 (second compound 0.1 µM) of 7.13 and a pIC50 (second compound 0.316 µM) of 7.13. It also gave a pIC50 (second compound 1 µM) of under 7.00, a pIC50 (second compound 3.16 µM) of under 7.00 and a pIC50 (second compound 10 µM) of under 7.00. The viability, T/C (second compound 0.0316 µM, first compound 0.000316 µM) was 100%, the viability, T/C (second compound 0.0316 µM, first compound 0.001 µM) was 91.2% and the viability, T/C [1] was 74.6%. The viability, T/C [2] was 70.4%, the viability, T/C [3] was 63.1% and the viability, T/C [4] was 43.4%. It also gave a viability, T/C (second compound 0.1 µM, first compound 0.000316 µM) of 86.4%, a viability, T/C (second compound 0.1 µM, first compound 0.001 µM) of 94.6% and a viability, T/C [5] of 87.9%. It also gave a viability, T/C [6] of 76.8%, a viability, T/C [7] of 64.7% and a viability, T/C [8] of 45.2%. It also gave a viability, T/C (second compound 0.316 µM, first compound 0.000316 µM) of 94.3%, a viability, T/C (second compound 0.316 µM, first compound 0.001 µM) of 88.9% and a viability, T/C [9] of 70.4%. It also gave a viability, T/C [10] of 76.3%, a viability, T/C [11] of 57.4% and a viability, T/C [12] of 46.3%. For the same compound, the viability, T/C (second compound 1 µM, first compound 0.000316 µM) was 93.7%, the viability, T/C (second compound 1 µM, first compound 0.001 µM) was 74% and the viability, T/C [13] was 88.8%. For the same compound, the viability, T/C [14] was 68.3%, the viability, T/C [15] was 68% and the viability, T/C [16] was 50.4%. For the same compound, the viability, T/C (second compound 3.16 µM, first compound 0.000316 µM) was 78.3%, the viability, T/C (second compound 3.16 µM, first compound 0.001 µM) was 99% and the viability, T/C [17] was 80.7%. It also gave a viability, T/C [18] of 63%, a viability, T/C [19] of 61.2% and a viability, T/C [20] of 47%. It also gave a viability, T/C (second compound 10 µM, first compound 0.000316 µM) of 97.9%, a viability, T/C (second compound 10 µM, first compound 0.001 µM) of 71.1% and a viability, T/C [21] of 75.7%. For the same compound, the viability, T/C [22] was 68%, the viability, T/C [23] was 62.2% and the viability, T/C [24] was 47.5%.
Compound `CCc1c2c(nc3ccc(O)cc13)-c1cc3c(c(=O)n1C2)COC(=O)[C@]3(O)CC` + Cc1cccc(N(C)C(=O)C2C(O)CCN2c2nc(C)cc(C(F)(F)F)c2C#N)c1 has a pIC50 (second compound 0.0316 µM) of 8.21, a pIC50 (second compound 0.1 µM) of 7.92 and a pIC50 (second compound 0.316 µM) of 7.92. The pIC50 (second compound 1 µM) was 8.01, the pIC50 (second compound 3.16 µM) was 7.91 and the pIC50 (second compound 10 µM) was 7.97. It also gave a viability, T/C [1] of 55.6%, a viability, T/C [2] of 43.5% and a viability, T/C [3] of 38%. For the same compound, the viability, T/C [4] was 17.1%, the viability, T/C [25] was 11.1% and the viability, T/C [26] was 5.47%. For the same compound, the viability, T/C [5] was 75.3%, the viability, T/C [6] was 51.9% and the viability, T/C [7] was 35.1%. For the same compound, the viability, T/C [8] was 17.8%, the viability, T/C [27] was 9.35% and the viability, T/C [28] was 4.26%. For the same compound, the viability, T/C [9] was 69.8%, the viability, T/C [10] was 52.8% and the viability, T/C [11] was 35.6%. It also gave a viability, T/C [12] of 19.3%, a viability, T/C [29] of 12.3% and a viability, T/C [30] of 4.42%. It also gave a viability, T/C [13] of 69.6%, a viability, T/C [14] of 50.9% and a viability, T/C [15] of 29.8%. The viability, T/C [16] was 17%, the viability, T/C [31] was 13.9% and the viability, T/C [32] was 4.44%. It also gave a viability, T/C [17] of 62.8%, a viability, T/C [18] of 54% and a viability, T/C [19] of 35.1%. The viability, T/C [20] was 21.1%, the viability, T/C [33] was 9.95% and the viability, T/C [34] was 5.61%. It also gave a viability, T/C [21] of 69.4%, a viability, T/C [22] of 50.5% and a viability, T/C [23] of 34.6%. The viability, T/C [24] was 22.5%, the viability, T/C [35] was 10.4% and the viability, T/C [36] was 4.3%.
Compound `Nc1ccn(C2OC(CO)C(O)C2(F)F)c(=O)n1` (stereo not drawn) + Cc1cccc(N(C)C(=O)C2C(O)CCN2c2nc(C)cc(C(F)(F)F)c2C#N)c1 has a pIC50 (second compound 0.0316 µM) of 5.89, a pIC50 (second compound 0.1 µM) of 5.76 and a pIC50 (second compound 0.316 µM) of 6.07. For the same compound, the pIC50 (second compound 1 µM) was 6.20, the pIC50 (second compound 3.16 µM) was 6.09 and the pIC50 (second compound 10 µM) was 6.27. For the same compound, the viability, T/C [3] was 88.1%, the viability, T/C [4] was 66.7% and the viability, T/C [25] was 54.9%. For the same compound, the viability, T/C [26] was 62.1%, the viability, T/C [37] was 44.8% and the viability, T/C [38] was 20.9%. It also gave a viability, T/C [7] of 81.3%, a viability, T/C [8] of 68.9% and a viability, T/C [27] of 57.9%. The viability, T/C [28] was 62.2%, the viability, T/C [39] was 46% and the viability, T/C [40] was 22.8%. It also gave a viability, T/C [11] of 97.1%, a viability, T/C [12] of 64.6% and a viability, T/C [29] of 60.8%. The viability, T/C [30] was 51.4%, the viability, T/C [41] was 43.7% and the viability, T/C [42] was 26.2%. The viability, T/C [15] was 80.8%, the viability, T/C [16] was 62.1% and the viability, T/C [31] was 53.8%. For the same compound, the viability, T/C [32] was 46.5%, the viability, T/C [43] was 44.2% and the viability, T/C [44] was 22.4%. It also gave a viability, T/C [19] of 89.4%, a viability, T/C [20] of 63.6% and a viability, T/C [33] of 48.5%. For the same compound, the viability, T/C [34] was 60.4%, the viability, T/C [45] was 45.1% and the viability, T/C [46] was 28%. It also gave a viability, T/C [23] of 85.1%, a viability, T/C [24] of 70.5% and a viability, T/C [35] of 52%. For the same compound, the viability, T/C [36] was 44.5%, the viability, T/C [47] was 41.4% and the viability, T/C [48] was 32.5%.
`O=C(c1cc(Cc2n[nH]c(=O)c3ccccc23)ccc1F)N1CCN(C(=O)C2CC2)CC1` + Cc1cccc(N(C)C(=O)C2C(O)CCN2c2nc(C)cc(C(F)(F)F)c2C#N)c1 was tested, and the pIC50 (second compound 0.0316 µM) was under 5.00, the pIC50 (second compound 0.1 µM) was under 5.00 and the pIC50 (second compound 0.316 µM) was under 5.00. The pIC50 (second compound 1 µM) was under 5.00, the pIC50 (second compound 3.16 µM) was under 5.00 and the pIC50 (second compound 10 µM) was under 5.00. For the same compound, the viability, T/C [3] was 102%, the viability, T/C [4] was 93% and the viability, T/C [25] was 92.1%. The viability, T/C [26] was 87.2%, the viability, T/C [37] was 74.5% and the viability, T/C [38] was 79.1%. For the same compound, the viability, T/C [7] was 114%, the viability, T/C [8] was 87.8% and the viability, T/C [27] was 92.4%. The viability, T/C [28] was 88.3%, the viability, T/C [39] was 77.6% and the viability, T/C [40] was 79.1%. The viability, T/C [11] was 101%, the viability, T/C [12] was 91.6% and the viability, T/C [29] was 82.9%. For the same compound, the viability, T/C [30] was 85.9%, the viability, T/C [41] was 85.8% and the viability, T/C [42] was 86.5%. For the same compound, the viability, T/C [15] was 86.5%, the viability, T/C [16] was 83.5% and the viability, T/C [31] was 91.5%. The viability, T/C [32] was 91.8%, the viability, T/C [43] was 67.5% and the viability, T/C [44] was 87.2%. The viability, T/C [19] was 76.4%, the viability, T/C [20] was 98.2% and the viability, T/C [33] was 101%. For the same compound, the viability, T/C [34] was 79.9%, the viability, T/C [45] was 86.3% and the viability, T/C [46] was 69.8%. For the same compound, the viability, T/C [23] was 72.3%, the viability, T/C [24] was 80% and the viability, T/C [35] was 78.9%. The viability, T/C [36] was 75.7%, the viability, T/C [47] was 69.8% and the viability, T/C [48] was 71.1%.

Reference: PubChem BioAssay AID1963826 (Molecular Pharmacology Branch, DTP, NCI, 2024)
